# From ChEMBL document CHEMBL4346677, “Compounds based on 5-(perylen-3-ylethynyl)uracil scaffold: High activity against tick-borne encephalitis virus and non-specific activity against enterovirus A” (Eur J Med Chem, 2019)
# Activity calls are given as the source filed them. The rule behind the calls is not given here.
# Columns and labels:
# [1] = Cytotoxicity against African green monkey Vero cells assessed as reduction in cell viability after 24 hrs by microscopic method; assay type: cell-based; conditions: chlorocebus sabaeus
# [2] = Solubility of compound in 15% DMSO by spectrophotometric analysis; assay type: physicochemical
# [3] = Cytotoxicity against PEK cells assessed as formation of syncytium-like patterns of cells at 50 uM after 7 days by microscopic method; assay type: cell-based, Sus scrofa; conditions: pig, 168 h
# Enterovirus A71 = experiment: Antiviral activity against Enterovirus A71 isolate 46973 infected in human RD cells assessed as reduction in virus induced cytopathic effect preincubated with viral suspension for 1 hr followed by cell addition measured after 5 to 7 days; assay type: functional, organism-based
# Poliovirus 1 = experiment: Antiviral activity against poliovirus type 1 sabin 1; assay type: functional, organism-based
# [4] = Cytotoxicity against African green monkey Vero cells assessed as reduction in cell viability after 7 days by microscopic method; assay type: cell-based; conditions: chlorocebus sabaeus
# [5] = Cytotoxicity against PEK cells assessed as reduction in cell viability after 24 hrs by microscopic method; assay type: cell-based, Sus scrofa; conditions: pig
# [6] = Cytotoxicity against PEK cells assessed as reduction in cell viability after 7 days by microscopic method; assay type: cell-based, Sus scrofa; conditions: pig
# [7] = test system: Tick-borne encephalitis virus; experiment: Antiviral activity against TBEV Absettarov infected in PEK cells assessed as plaque reduction preincubated for 1 hr followed by overlaying with 1.26% methylcellulose and measured after 6 days by gentian violet staining-based assay; assay type: functional, organism-based
# RD [8] = experiment: Cytotoxicity against human RD cells assessed as formation of syncytium-like patterns of cells at 50 uM after 7 days by microscopic method; assay type: cell-based; conditions: 168 h
# Echovirus = experiment: Antiviral activity against Echovirus 30 isolate 48461; assay type: functional, organism-based
# [9] = Cytotoxicity against human RD cells assessed as reduction in cell viability after 24 hrs by microscopic method; assay type: cell-based
# [10] = Cytotoxicity against human RD cells assessed as reduction in cell viability after 7 days by microscopic method; assay type: cell-based
# Vero [11] = experiment: Cytotoxicity against African green monkey Vero cells assessed as formation of syncytium-like patterns of cells at 50 uM after 7 days by microscopic method; assay type: cell-based; conditions: chlorocebus sabaeus, 168 h
# RD [12] = experiment: Cytotoxicity against human RD cells assessed as reduction in metabolic activity at >20 uM after 24 hrs by CellTiter-Blue assay; assay type: ADME, cell-based
# [13] = Cytotoxicity against PEK cells assessed as reduction in metabolic activity at >20 uM after 24 hrs by CellTiter-Blue assay; assay type: ADME, cell-based, Sus scrofa; conditions: pig
# Vero [14] = experiment: Cytotoxicity against African green monkey Vero cells assessed as reduction in metabolic activity at >20 uM after 24 hrs by CellTiter-Blue assay; assay type: ADME, cell-based; conditions: chlorocebus sabaeus
# [15] = test system: Vesicular stomatitis virus; experiment: Antiviral activity against VSV infected in African green monkey Vero cells assessed as plaque reduction preincubated for 10 mins inocula removed after 1 hr followed by overlaying with 2% methylcellulose and measured after 1 to 2 days by crystal violet staining based assay; assay type: functional, organism-based
# [16] = Selectivity index, ratio of CC50 for African green monkey Vero cells to EC50 for HSV-2 infected in Vero cells; assay type: toxicity, cell-based; conditions: read-out: Ratio CC50/EC50
# [17] = Selectivity index, ratio of CC50 for African green monkey Vero cells to EC50 for HSV-1 infected in Vero cells; assay type: toxicity, cell-based; conditions: read-out: Ratio CC50/EC50
# Sindbis virus = experiment: Antiviral activity against Sindbis virus infected in African green monkey Vero cells assessed as plaque reduction preincubated for 10 mins inocula removed after 1 hr followed by overlaying with 2% methylcellulose and measured after 1 to 2 days by crystal violet staining based assay; assay type: functional, organism-based
# [18] = Selectivity index, ratio of CC50 for African green monkey Vero cells to EC50 for Sindbis infected in Vero cells; assay type: toxicity, cell-based; conditions: read-out: Ratio CC50/EC50
# [19] = Selectivity index, ratio of CC50 for African green monkey Vero cells to EC50 for VSV infected in Vero cells; assay type: toxicity, cell-based; conditions: read-out: Ratio CC50/EC50
# Human alphaherpesvirus 2 = experiment: Antiviral activity against HSV-2 infected in African green monkey Vero cells assessed as plaque reduction preincubated for 10 mins inocula removed after 1 hr followed by overlaying with 2% methylcellulose and measured after 1 to 2 days by crystal violet staining based assay; assay type: functional, organism-based; conditions: Human alphaherpesvirus 2, Vero
# Hepatitis C virus = experiment: Antiviral activity against HCV JFH1 infected in human Huh7.5 cells assessed as NS3 expression by western blot analysis; assay type: functional, organism-based, Hepacivirus hominis; conditions: JFH1, Huh7.5
# [20] = Selectivity index, ratio of CC50 for human Huh7.5 cells to EC50 for HCV JFH1 infected in Huh7.5 cells; assay type: toxicity, cell-based; conditions: read-out: Ratio CC50/EC50
# Murid betaherpesvirus 1 = experiment: Antiviral activity against mCMV infected in mouse NIH3T3 cells assessed as reduction in virus induced cytopathogenicity; assay type: functional, organism-based; conditions: Murid betaherpesvirus 1, NIH3T3
# Human alphaherpesvirus 1 = experiment: Antiviral activity against HSV-1 infected in African green monkey Vero cells preincubated with virus for 5 mins; assay type: functional, organism-based; conditions: Human alphaherpesvirus 1, Vero
# [21] = Selectivity index, ratio of CC50 for MDCK cells to EC50 for H1N1 infected in MDCK cells; assay type: toxicity, cell-based; conditions: dog, read-out: Ratio CC50/EC50
# Influenza A virus [22] = experiment: Antiviral activity against influenza A virus H3N2 infected in dog MDCK cells assessed as plaque reduction preincubated for 10 mins inocula removed after 1 hr followed by overlaying with 0.8% agarose and measured after 1 to 2 days by crystal violet staining based assay; assay type: functional, organism-based
# [23] = Selectivity index, ratio of CC50 for mouse NIH3T3 cells to EC50 for mCMV infected in NIH3T3 cells; assay type: toxicity, cell-based; conditions: read-out: Ratio CC50/EC50
# [24] = Selectivity index, ratio of CC50 for MDCK cells to EC50 for H3N2 infected in MDCK cells; assay type: toxicity, cell-based; conditions: dog, read-out: Ratio CC50/EC50
# Influenza A virus [25] = experiment: Antiviral activity against influenza A virus H1N1 infected in dog MDCK cells assessed as plaque reduction preincubated for 10 mins inocula removed after 1 hr followed by overlaying with 0.8% agarose and measured after 1 to 2 days by crystal violet staining based assay; assay type: functional, organism-based
# [26] = Enterovirus A, isolate 46973, RD, read-out: EC50
Structure (SMILES),CC50 at 24 h [1] [µM],Activity [3],EC50 (Enterovirus A71),Activity (Poliovirus 1),CC50 at 168 h [4] [µM],CC50 at 24 h [5] [µM],CC50 at 168 h [6] [µM],EC50 [7] [µM],Activity (RD [8]),Activity (Echovirus),CC50 at 24 h [9] [µM],CC50 at 168 h [10] [µM],Activity (Vero [11]),other results
CC(C)(C)C(=O)OCn1c(=O)c(C#Cc2ccc3c4cccc5cccc(c6cccc2c63)c54)cn(CC(=O)N(CCO)CCO)c1=O,38,Toxic,Not Active,inactive,> 50,> 50,> 50,0.00044,Toxic,inactive,19,14,Toxic,solubility [2]: 1000 µM
CC(C)(C)C(=O)OCn1c(=O)c(C#Cc2ccc3c4cccc5cccc(c6cccc2c63)c54)cn(CC(=O)NCCCCO)c1=O,> 50,Toxic,Not Active,inactive,> 50,> 50,> 50,0.00069,Toxic,inactive,19,38,Toxic,solubility [2]: 5.3 µM
CC(C)(CO)[C@@H](O)CNC(=O)Cn1cc(C#Cc2ccc3c4cccc5cccc(c6cccc2c63)c54)c(=O)[nH]c1=O,38,Toxic,,inactive,> 50,> 50,> 50,0.019,Toxic,inactive,76,76,Toxic,Activity (RD [12]): Toxic; EC50 (Enterovirus A71; [26]): 108 µM; Activity [13]: Non-Toxic; Activity (Vero [14]): Non-Toxic
O=c1[nH]c(=O)n([C@H]2C[C@H](O)[C@@H](CO)O2)cc1C#Cc1ccc2c3cccc4cccc(c5cccc1c52)c43,,,,,,,,,,,,,,EC50 [15]: 0.002 to 0.283 µM; selectivity ratio [16]: > 3000; selectivity ratio [17]: > 3000; EC50 (Sindbis virus): 0.002 to 0.283 µM; selectivity ratio [18]: > 3000; selectivity ratio [19]: > 3000; EC50 (Human alphaherpesvirus 2): 0.002 to 0.283 µM; EC50 (Hepatitis C virus): 0.002 to 0.283 µM; selectivity ratio [20]: > 3000; EC50 (Murid betaherpesvirus 1): 0.002 to 0.283 µM; EC50 (Human alphaherpesvirus 1): 0.048 µM; selectivity ratio [21]: > 3000; EC50 (Influenza A virus [22]): 0.002 to 0.283 µM; selectivity ratio [23]: > 3000; selectivity ratio [24]: > 3000; EC50 (Influenza A virus [25]): 0.002 to 0.283 µM
CC(C)(C)C(=O)OCn1c(=O)c(C#Cc2ccc3c4cccc5cccc(c6cccc2c63)c54)cn(CC(=O)NCCCCCO)c1=O,32,Toxic,Not Active,inactive,> 50,> 50,> 50,0.0016,Toxic,inactive,19,10,Toxic,
O=C(Cn1cc(C#Cc2ccc3c4cccc5cccc(c6cccc2c63)c54)c(=O)[nH]c1=O)N(CCO)CCO,> 50,Toxic,Not Active,inactive,> 50,> 50,> 50,0.007,Toxic,inactive,> 104,> 104,Toxic,
CC(C)(C)C(=O)OCn1c(=O)c(C#Cc2ccc3c4cccc5cccc(c6cccc2c63)c54)cn(CC(=O)NC[C@H](O)C(C)(C)CO)c1=O,> 50,Toxic,Not Active,inactive,> 50,> 50,> 50,0.00079,Toxic,inactive,19,19,Toxic,
CCCCNC(=O)Cn1cc(C#Cc2ccc3c4cccc5cccc(c6cccc2c63)c54)c(=O)n(COC(=O)C(C)(C)C)c1=O,> 50,Toxic,Not Active,inactive,> 50,> 50,> 50,0.054,Toxic,inactive,38,10,Toxic,
CC(C)(C)C(=O)OCn1c(=O)c(C#Cc2ccc3c4cccc5cccc(c6cccc2c63)c54)cn(CC(=O)NCCCO)c1=O,38,Toxic,Not Active,inactive,> 50,> 50,> 50,0.00043,Toxic,inactive,19,10,Toxic,solubility [2]: 49 µM
O=C(Cn1cc(C#Cc2ccc3c4cccc5cccc(c6cccc2c63)c54)c(=O)[nH]c1=O)NCCCCCO,> 50,Toxic,Not Active,inactive,> 50,> 50,> 50,0.077,Toxic,inactive,> 104,> 104,Toxic,
CC(C)(C)C(=O)OC[C@@H]1CC[C@H](n2cc(C#Cc3ccc4c5cccc6cccc(c7cccc3c74)c65)c(=O)[nH]c2=O)O1,,,,,,,,,,,,,,EC50 (Human alphaherpesvirus 1): 0.19 µM
O=C(Cn1cc(C#Cc2ccc3c4cccc5cccc(c6cccc2c63)c54)c(=O)[nH]c1=O)NCCCCO,> 50,Toxic,,inactive,> 50,> 50,> 50,0.02,Toxic,inactive,76,81,Toxic,Activity (RD [12]): Toxic; EC50 (Enterovirus A71; [26]): 56 µM; Activity [13]: Non-Toxic; Activity (Vero [14]): Non-Toxic
O=c1[nH]c(=O)n([C@H]2CC[C@@H](CO)O2)cc1C#Cc1ccc2c3cccc4cccc(c5cccc1c52)c43,,,,,,,,,,,,,,EC50 (Human alphaherpesvirus 1): 0.087 µM
O=c1[nH]c(=O)n([C@@H]2O[C@H](CO)[C@@H](O)[C@@H]2O)cc1C#Cc1ccc2c3cccc4cccc(c5cccc1c52)c43,,Toxic,,inactive,,> 50,> 50,0.021,Toxic,inactive,,,Toxic,EC50 [15]: 0.002 to 0.283 µM; selectivity ratio [16]: > 3000; selectivity ratio [17]: > 3000; EC50 (Sindbis virus): 0.002 to 0.283 µM; selectivity ratio [18]: > 3000; selectivity ratio [19]: > 3000; EC50 (Human alphaherpesvirus 2): 0.002 to 0.283 µM; EC50 (Hepatitis C virus): 0.002 to 0.283 µM; selectivity ratio [20]: > 3000; EC50 (Murid betaherpesvirus 1): 0.002 to 0.283 µM; EC50 (Human alphaherpesvirus 1): 0.002 to 0.283 µM; selectivity ratio [21]: > 3000; EC50 (Influenza A virus [22]): 0.002 to 0.283 µM; selectivity ratio [23]: > 3000; selectivity ratio [24]: > 3000; EC50 (Influenza A virus [25]): 0.002 to 0.283 µM
